Results from ChEMBL document CHEMBL4334438, “Discovery of novel glycogen synthase kinase-3α inhibitors: Structure-based virtual screening, preliminary SAR and biological evaluation for treatment of acute myeloid leukemia” (Eur J Med Chem, 2019).

Legend:
[1] = tested on: Epidermal growth factor receptor (Homo sapiens), P00533 [T790M]; assay: Inhibition of recombinant human EGFR T790M mutant (696 to end residues) assessed as residual activity at 1 uM using poly(Glu, Tyr) 4:1 as substrate at 40 mins in presence of [gamma-33ATP] by scintillation counting based radiometry assay relative to control
[2] = biological target: Insulin receptor-related protein (Homo sapiens) (UniProt P14616); assay: Inhibition of human IRR (943 to 1266 residues) assessed as residual activity at 1 uM using myelin basic protein as substrate after 40 mins by [gamma-33ATP] radiometric assay relative to control
[3] = biological target: ALK tyrosine kinase receptor (Homo sapiens) (UniProt Q9UM73); assay: Inhibition of human ALK (1058 to end residues) assessed as residual activity at 1 uM using KKKSPGEYVNIEFG as substrate incubated for 40 mins in presence of [gamma-33ATP] by scintillation counting based radiometry assay relative to control
[4] = tested on: Receptor-type tyrosine-protein kinase FLT3 (Homo sapiens), P36888 [D835Y]; assay: Inhibition of recombinant human FLT3 D835Y mutant (564 to end residues) assessed as residual activity at 1 uM using EAIYAAPFAKKK as substrate at 40 mins in presence of [gamma-33ATP] by scintillation counting based radiometry assay relative to control
[5] = biological target: BDNF/NT-3 growth factors receptor (Homo sapiens) (UniProt Q16620); assay: Inhibition of human TrkB (455 to end residues) assessed as residual activity at 1 uM using poly(Glu, Tyr) 4:1 as substrate measured after 40 mins in presence of [gamma33P]ATP by scintillation counting method relative to control
[6] = biological target: Serine/threonine-protein kinase 26 (Homo sapiens) (UniProt Q9P289); assay: Inhibition of recombinant human MST4 (4 to 304 residues) assessed as residual activity at 1 uM using RLGRDKYKTLRQIRQ as substrate measured after 40 mins in presence of [gamma33P]ATP by scintillation counting method relative to control
[7] = biological target: MAP kinase-activated protein kinase 3 (Homo sapiens) (UniProt Q16644); assay: Inhibition of recombinant human MAPKAPK3 (2 to end residues) assessed as residual activity at 1 uM using KKLNRTLSVA as substrate incubated for 40 mins in presence of [gamma-33ATP by scintillation counting based radiometry assay relative to control
[8] = biological target: Macrophage-stimulating protein receptor (Homo sapiens) (UniProt Q04912); assay: Inhibition of recombinant human Ron (983 to end residues) assessed as residual activity at 1 uM using GGMEDIYFEFMGGKKK as substrate measured after 40 mins in presence of [gamma33P]ATP by scintillation counting method relative to control
[9] = tested on: Mast/stem cell growth factor receptor Kit (Homo sapiens), P10721 [V654A]; assay: Inhibition of recombinant human C-Kit V654A mutant (544 to end residues) assessed as residual activity at 1 uM poly(Glu, Tyr) 4:1 as substrate incubated 40 mins in presence of [gamma-33ATP] by scintillation counting based radiometry assay relative to control
[10] = biological target: Ribosomal protein S6 kinase alpha-2 (Homo sapiens) (UniProt Q15349); assay: Inhibition of recombinant full length human Rsk3 assessed as residual activity at 1 uM using KKKNRTLSVA as substrate measured after 40 mins in presence of [gamma33P]ATP by scintillation counting method relative to control
GSK-3beta (H350L mutant) = GSK-3beta (H350L mutant) (Homo sapiens, UniProt P49841, H350L); assay: Inhibition of human GSK-3beta H350L mutant (2 to end residues) assessed as residual activity at 1 uM using phospho GS2 peptide as substrate after 40 mins by [gamma-33ATP] radiometric assay relative to control; conditions: human GSK-3beta H350L mutant enzyme (residues 2 to end), probe phospho GS2 peptide, read-out: Activity
Homo sapiens = species: Homo sapiens; assay: Inhibition of human activated Tec F514V mutant (174 to end residues) assessed as residual activity at 1 uM using EFPIYDFLPAKKK as substrate measured after 40 mins in presence of [gamma33P]ATP by scintillation counting method relative to control
[11] = biological target: Serine/threonine-protein kinase tousled-like 1 (Homo sapiens) (UniProt Q9UKI8); assay: Inhibition of recombinant full-length human TLK1 at 1 uM assessed as residual activity at 1 uM using casein as substrate measured after 40 mins in presence of [gamma33P]ATP by scintillation counting method relative to control
[12] = tested on: Hepatocyte growth factor receptor (Homo sapiens), P08581 [Y1230D]; assay: Inhibition of recombinant human MET A1209G/V1290L/Y1248D mutant (974 to end residues) assessed as residual activity at 1 uM using KKKGQEEEYVFIE as substrate incubated for 40 mins in presence of [gamma-33ATP by scintillation counting based radiometry assay relative to control
[13] = biological target: Serine/threonine-protein kinase TAO2 (Homo sapiens) (UniProt Q9UL54); assay: Inhibition of human TAO2 (1 to 320 residues) assessed as residual activity at 1 uM using myelin basic protein as substrate measured after 40 mins in presence of [gamma33P]ATP by scintillation counting method relative to control
[14] = biological target: Dual specificity mitogen-activated protein kinase kinase 2 (Homo sapiens) (UniProt P36507); assay: Inhibition of recombinant human MEK2 assessed as residual activity at 1 uM using MBP as substrate incubated for 40 mins in presence of [gamma-33ATP by scintillation counting based radiometry assay relative to control
[15] = biological target: Serine/threonine-protein kinase 38-like (Homo sapiens) (UniProt Q9Y2H1); assay: Inhibition of recombinant human NDR2 (83 to end residues) assessed as residual activity at 1 uM using RSRSRSRSRSRSRSR as substrate measured after 40 mins in presence of [gamma33P]ATP by scintillation counting method relative to control
[16] = biological target: Testis-specific serine/threonine-protein kinase 4 (Homo sapiens) (UniProt Q6SA08); assay: Inhibition of recombinant full-length human TSSK4 at 1 uM assessed as residual activity at 1 uM using KKLNRTLSFAEPG as substrate measured after 40 mins in presence of [gamma33P]ATP by scintillation counting method relative to control
[17] = biological target: Serine/threonine-protein kinase Sgk3 (Homo sapiens) (UniProt Q96BR1); assay: Inhibition of recombinant human SGK3 (119 to end residues) assessed as residual activity at 1 uM using GRPRTSSFAEGKK as substrate measured after 40 mins in presence of [gamma33P]ATP by scintillation counting method relative to control
[18] = biological target: Phosphatidylinositol 3-kinase C2 domain-containing subunit gamma (Homo sapiens) (UniProt O75747); assay: Inhibition of recombinant human PI3KC2gamma (468 to 1203 residues) at 1 uM assessed as residual activity at 1 uM using phosphatidylinositol as substrate measured after 40 mins by HTRF assay
[19] = biological target: Serine/threonine-protein kinase DCLK2 (Homo sapiens) (UniProt Q8N568); assay: Inhibition of recombinant human DCAMKL2 (376 to end residues) assessed as residual activity at 1 uM using KKLNRTLSFAEPG as substrate at 40 mins in presence of [gamma-33ATP] by scintillation counting based radiometry assay relative to control

Chain of Serine/threonine-protein kinase tousled-like 1 (Homo sapiens) (Q9UKI8 whole entry): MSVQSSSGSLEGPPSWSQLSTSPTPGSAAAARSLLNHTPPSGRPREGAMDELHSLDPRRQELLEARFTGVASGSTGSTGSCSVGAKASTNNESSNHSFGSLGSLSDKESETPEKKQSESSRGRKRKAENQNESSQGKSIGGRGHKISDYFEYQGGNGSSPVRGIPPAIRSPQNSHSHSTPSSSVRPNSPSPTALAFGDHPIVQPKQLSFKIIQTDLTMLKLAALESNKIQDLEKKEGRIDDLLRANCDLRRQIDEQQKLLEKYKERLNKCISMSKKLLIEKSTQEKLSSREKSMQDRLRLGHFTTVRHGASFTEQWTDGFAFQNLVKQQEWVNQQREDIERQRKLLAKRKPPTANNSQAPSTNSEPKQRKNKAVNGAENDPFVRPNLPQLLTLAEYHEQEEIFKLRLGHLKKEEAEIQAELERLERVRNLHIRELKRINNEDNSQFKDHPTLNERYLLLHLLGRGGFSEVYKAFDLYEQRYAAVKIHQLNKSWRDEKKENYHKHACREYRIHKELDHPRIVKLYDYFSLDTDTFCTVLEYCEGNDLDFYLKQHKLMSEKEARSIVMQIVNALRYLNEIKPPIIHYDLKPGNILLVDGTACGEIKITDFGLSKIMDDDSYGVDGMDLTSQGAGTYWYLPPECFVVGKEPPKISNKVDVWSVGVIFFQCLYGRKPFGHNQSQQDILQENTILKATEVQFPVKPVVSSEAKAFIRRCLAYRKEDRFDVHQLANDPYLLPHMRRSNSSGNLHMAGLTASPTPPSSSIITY
Chain of Macrophage-stimulating protein receptor (Homo sapiens) (Q04912 25-304 limits assumed): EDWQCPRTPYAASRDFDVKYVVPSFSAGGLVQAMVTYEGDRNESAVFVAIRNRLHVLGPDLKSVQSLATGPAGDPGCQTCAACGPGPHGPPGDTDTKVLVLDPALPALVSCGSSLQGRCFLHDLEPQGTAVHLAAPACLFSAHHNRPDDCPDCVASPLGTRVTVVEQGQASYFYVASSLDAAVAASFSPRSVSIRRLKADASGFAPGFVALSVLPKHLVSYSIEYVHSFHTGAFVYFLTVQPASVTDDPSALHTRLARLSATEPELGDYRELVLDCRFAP
Chain of Macrophage-stimulating protein receptor (Homo sapiens) (Q04912 310-1400 limits assumed): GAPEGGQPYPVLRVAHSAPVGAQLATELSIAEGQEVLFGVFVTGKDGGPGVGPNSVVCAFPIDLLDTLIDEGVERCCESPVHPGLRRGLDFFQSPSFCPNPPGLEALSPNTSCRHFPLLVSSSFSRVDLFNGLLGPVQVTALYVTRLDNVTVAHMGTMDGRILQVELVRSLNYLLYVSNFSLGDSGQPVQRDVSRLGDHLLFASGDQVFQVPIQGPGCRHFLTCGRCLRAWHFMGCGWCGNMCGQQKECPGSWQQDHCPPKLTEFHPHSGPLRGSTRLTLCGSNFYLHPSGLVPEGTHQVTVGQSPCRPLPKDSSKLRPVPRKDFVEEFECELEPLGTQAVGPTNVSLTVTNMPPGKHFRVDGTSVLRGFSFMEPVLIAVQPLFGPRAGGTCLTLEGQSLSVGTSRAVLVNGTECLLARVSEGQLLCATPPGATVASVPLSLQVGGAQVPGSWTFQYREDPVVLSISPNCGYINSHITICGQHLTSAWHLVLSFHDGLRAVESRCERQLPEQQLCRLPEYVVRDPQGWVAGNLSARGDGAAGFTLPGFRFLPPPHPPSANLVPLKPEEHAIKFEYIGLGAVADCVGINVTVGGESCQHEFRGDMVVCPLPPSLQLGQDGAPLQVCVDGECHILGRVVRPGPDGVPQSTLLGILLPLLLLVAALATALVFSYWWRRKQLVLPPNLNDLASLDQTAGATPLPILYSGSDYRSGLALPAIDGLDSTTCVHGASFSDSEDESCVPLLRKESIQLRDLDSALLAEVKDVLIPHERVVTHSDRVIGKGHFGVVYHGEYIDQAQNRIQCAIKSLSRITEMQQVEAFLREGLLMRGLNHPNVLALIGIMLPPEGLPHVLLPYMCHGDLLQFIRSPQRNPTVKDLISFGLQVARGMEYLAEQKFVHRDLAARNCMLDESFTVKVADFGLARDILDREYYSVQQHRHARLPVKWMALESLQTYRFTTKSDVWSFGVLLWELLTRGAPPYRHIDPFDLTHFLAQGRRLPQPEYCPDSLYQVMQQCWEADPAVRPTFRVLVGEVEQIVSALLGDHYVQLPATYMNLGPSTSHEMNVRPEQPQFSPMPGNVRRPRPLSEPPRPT
Chain of Insulin receptor-related protein (Homo sapiens) (P14616 27-742 limits assumed): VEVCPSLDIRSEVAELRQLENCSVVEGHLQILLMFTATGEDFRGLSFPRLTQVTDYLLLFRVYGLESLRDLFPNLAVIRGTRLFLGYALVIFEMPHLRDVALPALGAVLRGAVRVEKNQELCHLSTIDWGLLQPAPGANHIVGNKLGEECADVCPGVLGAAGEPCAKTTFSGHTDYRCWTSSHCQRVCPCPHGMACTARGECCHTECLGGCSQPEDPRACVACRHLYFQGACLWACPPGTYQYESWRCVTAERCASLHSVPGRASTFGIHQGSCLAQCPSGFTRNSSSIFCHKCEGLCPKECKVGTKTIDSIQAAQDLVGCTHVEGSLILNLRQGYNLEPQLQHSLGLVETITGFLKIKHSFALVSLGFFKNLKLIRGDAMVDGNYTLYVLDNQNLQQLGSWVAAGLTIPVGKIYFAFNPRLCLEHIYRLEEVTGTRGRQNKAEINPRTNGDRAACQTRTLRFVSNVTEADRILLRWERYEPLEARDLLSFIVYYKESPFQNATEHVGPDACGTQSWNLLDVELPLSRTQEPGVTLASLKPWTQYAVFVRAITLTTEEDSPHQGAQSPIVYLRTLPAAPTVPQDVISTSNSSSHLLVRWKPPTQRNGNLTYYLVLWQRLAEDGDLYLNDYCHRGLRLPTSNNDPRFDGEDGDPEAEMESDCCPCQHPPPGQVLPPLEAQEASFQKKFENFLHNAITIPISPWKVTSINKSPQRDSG
Chain of Insulin receptor-related protein (Homo sapiens) (P14616 747-1297 limits assumed): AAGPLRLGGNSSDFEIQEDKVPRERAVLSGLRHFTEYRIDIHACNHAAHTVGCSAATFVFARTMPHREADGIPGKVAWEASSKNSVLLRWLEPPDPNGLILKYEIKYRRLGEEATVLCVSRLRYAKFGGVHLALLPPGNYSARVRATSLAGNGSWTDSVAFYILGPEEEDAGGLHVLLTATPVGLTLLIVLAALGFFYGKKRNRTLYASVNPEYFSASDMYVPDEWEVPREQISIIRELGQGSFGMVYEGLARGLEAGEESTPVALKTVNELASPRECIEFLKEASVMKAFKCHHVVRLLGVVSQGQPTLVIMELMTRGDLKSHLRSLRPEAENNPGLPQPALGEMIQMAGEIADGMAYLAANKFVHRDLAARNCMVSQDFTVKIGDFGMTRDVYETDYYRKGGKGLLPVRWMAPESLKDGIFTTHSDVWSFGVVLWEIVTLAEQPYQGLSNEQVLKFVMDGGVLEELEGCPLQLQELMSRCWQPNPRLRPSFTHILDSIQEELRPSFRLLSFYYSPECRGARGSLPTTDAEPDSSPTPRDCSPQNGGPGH
Chain of Serine/threonine-protein kinase 26 (Homo sapiens) (Q9P289 2-416 limits assumed): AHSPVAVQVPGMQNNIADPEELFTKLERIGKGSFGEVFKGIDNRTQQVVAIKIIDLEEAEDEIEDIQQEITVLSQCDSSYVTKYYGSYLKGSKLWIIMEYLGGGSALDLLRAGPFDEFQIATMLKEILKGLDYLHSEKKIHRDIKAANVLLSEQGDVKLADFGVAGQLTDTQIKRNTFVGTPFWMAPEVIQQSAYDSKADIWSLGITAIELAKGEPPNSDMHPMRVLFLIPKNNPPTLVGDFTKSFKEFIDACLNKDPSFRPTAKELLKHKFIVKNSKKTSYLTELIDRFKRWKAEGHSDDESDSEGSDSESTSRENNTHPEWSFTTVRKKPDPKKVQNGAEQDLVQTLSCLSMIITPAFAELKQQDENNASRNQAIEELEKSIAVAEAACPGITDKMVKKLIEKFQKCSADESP
Chain of Ribosomal protein S6 kinase alpha-2 (Homo sapiens) (Q15349 whole entry, the tested form may be a part): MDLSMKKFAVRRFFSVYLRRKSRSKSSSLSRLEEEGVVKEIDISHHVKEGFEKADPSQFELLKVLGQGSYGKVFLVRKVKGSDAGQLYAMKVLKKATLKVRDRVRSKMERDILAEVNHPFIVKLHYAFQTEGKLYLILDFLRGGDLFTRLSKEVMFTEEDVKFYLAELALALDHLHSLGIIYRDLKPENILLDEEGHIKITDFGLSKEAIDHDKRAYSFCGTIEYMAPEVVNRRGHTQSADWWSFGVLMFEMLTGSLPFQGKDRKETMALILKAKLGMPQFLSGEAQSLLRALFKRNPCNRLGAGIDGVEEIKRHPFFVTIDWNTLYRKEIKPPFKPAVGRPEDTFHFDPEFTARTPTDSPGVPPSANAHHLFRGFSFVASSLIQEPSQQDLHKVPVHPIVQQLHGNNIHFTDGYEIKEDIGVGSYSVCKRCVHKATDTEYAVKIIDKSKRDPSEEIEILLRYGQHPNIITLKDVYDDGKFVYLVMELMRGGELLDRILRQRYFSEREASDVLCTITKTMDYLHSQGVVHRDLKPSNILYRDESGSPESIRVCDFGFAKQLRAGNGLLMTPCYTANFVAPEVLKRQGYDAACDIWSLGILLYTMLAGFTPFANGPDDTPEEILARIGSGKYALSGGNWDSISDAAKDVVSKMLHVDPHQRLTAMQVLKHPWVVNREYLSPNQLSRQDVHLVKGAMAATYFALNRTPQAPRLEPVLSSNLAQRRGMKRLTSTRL
Chain of Serine/threonine-protein kinase Sgk3 (Homo sapiens) (Q96BR1 whole entry, the tested form may be a part): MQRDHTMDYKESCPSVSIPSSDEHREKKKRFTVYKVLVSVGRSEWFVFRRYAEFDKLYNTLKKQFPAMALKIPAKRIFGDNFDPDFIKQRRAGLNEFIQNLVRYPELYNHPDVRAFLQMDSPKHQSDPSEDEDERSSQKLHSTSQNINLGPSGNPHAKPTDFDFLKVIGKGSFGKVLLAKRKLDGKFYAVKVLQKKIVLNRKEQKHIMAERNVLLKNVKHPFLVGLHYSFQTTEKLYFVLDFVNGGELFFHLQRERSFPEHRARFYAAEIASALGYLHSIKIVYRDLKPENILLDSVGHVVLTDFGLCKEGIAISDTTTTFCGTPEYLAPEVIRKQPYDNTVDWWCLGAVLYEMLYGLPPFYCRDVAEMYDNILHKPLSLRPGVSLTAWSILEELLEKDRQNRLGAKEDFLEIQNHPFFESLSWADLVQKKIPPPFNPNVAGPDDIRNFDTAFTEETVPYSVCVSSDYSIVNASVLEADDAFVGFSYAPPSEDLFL

Structure (SMILES)	Activity [1]	Activity [2]	Activity [3]	Activity [4]	Activity [5]	Activity [6]	Activity [7]	Activity [8]	Activity [9]	Activity [10]	activity at 40 min, 1 µM (GSK-3beta (H350L mutant))	Activity (Homo sapiens)	Activity [11]	Activity [12]	Activity [13]	Activity [14]	Activity [15]	Activity [16]	Activity [17]	Activity [18]	further results
N=C1NC(=O)/C(=C\c2ccc(-c3cccc([N+](=O)[O-])c3)o2)S1	101%	55%	98%	84%	98%	94%	97%	104%	108%	96%	17%	96%	110%	92%	79%	100%	92%	102%	109%	90%	Activity [19]: 102%
C=CCOC(=O)c1cc(-c2ccc(/C=C3/NC(=S)NC3=O)o2)ccc1Cl	90%	45%	90%	101%	92%	93%	96%	106%	95%	112%	31%	99%	101%	105%	100%	104%	118%	121%	96%	77%	Activity [19]: 104%
